Patent US8101198B2, “Osteogenic enhancer composition” (The Regents of the University of California, priority 2007, dated 2012)

How the values were obtained:
rat osteoblastic cells [1] = test: Alkaline phosphatase (ALP) stain of osteoblastic culture (Example 1); type: cell-based; conditions: NAC added into osteoblastic culture, day 7; dose-dependent up to 5 mM; p<0.001 vs without NAC
Description: Bone marrow cells isolated from the femur of 8-week-old male Sprague-Dawley rats were placed into alpha-modified Eagle's medium supplemented with 15% fetal bovine serum, 50 µg/ml ascorbic acid, 10^−8M dexamethasone, 10 mM Na-β-glycerophosphate and Antibiotic-antimycotic solution containing 10,000 units/ml Penicillin G sodium, 10,000 mg/ml Streptomycin sulfate and 25 mg/ml Amphotericin B. Cells were incubated in a humidified atmosphere of 95% air, 5% CO2 at 37° C. At 80% confluency, the cells were detached using 0.25% Trypsin-1 mM EDTA-4Na and seeded either the polystyrene dish with or without NAC addition, bone substitute material (demineralized bone matrix, Orthoblast, IsoTis OrthoBiologics, Inc. Irvine, Calif.), collagen gel (PureCol, Inamed, Fremont, Calif.) or bone cement (Endurance MV, DePuy Orthopaedics, Warsaw, Ind.) with or without NAC incorporation at a density of 4×10^4 cells/cm^2. The culture medium was renewed every three days. The NAC incorporated bone graft substitute and collagen membrane materials were prepared by soaking each of the materials in NAC for 24 hours. The NAC-incorporated collagen gel was prepared by mixing the collagen gel and NAC. […] The stained images were analyzed for ALP positive area defined as [(stained area/total dish area)×100)] […] Three independent cultures were evaluated in each the experimental groups.

rat osteoblastic cells [2] = test: Mineralization assays, Von Kossa and Alizarin Red stain (Example 1); type: cell-based; conditions: NAC added into culture medium, day 14; dose-dependent; p<0.001
Description: Bone marrow cells isolated from the femur of 8-week-old male Sprague-Dawley rats were placed into alpha-modified Eagle's medium supplemented with 15% fetal bovine serum, 50 µg/ml ascorbic acid, 10^−8M dexamethasone, 10 mM Na-β-glycerophosphate and Antibiotic-antimycotic solution containing 10,000 units/ml Penicillin G sodium, 10,000 mg/ml Streptomycin sulfate and 25 mg/ml Amphotericin B. Cells were incubated in a humidified atmosphere of 95% air, 5% CO2 at 37° C. At 80% confluency, the cells were detached using 0.25% Trypsin-1 mM EDTA-4Na and seeded either the polystyrene dish with or without NAC addition, bone substitute material (demineralized bone matrix, Orthoblast, IsoTis OrthoBiologics, Inc. Irvine, Calif.), collagen gel (PureCol, Inamed, Fremont, Calif.) or bone cement (Endurance MV, DePuy Orthopaedics, Warsaw, Ind.) with or without NAC incorporation at a density of 4×10^4 cells/cm^2. The culture medium was renewed every three days. The NAC incorporated bone graft substitute and collagen membrane materials were prepared by soaking each of the materials in NAC for 24 hours. The NAC-incorporated collagen gel was prepared by mixing the collagen gel and NAC. […] (%) was measured using a digitized image analysis system (Image Pro-plus, Media Cybernetics, MD). Three independent cultures were evaluated in each of the experimental groups.

osteoblastic culture = test: Gene expression analysis of bone-related genes by RT-PCR (Example 1); type: cell-based, rat; conditions: relative to GAPDH
Description: Bone marrow cells isolated from the femur of 8-week-old male Sprague-Dawley rats were placed into alpha-modified Eagle's medium supplemented with 15% fetal bovine serum, 50 µg/ml ascorbic acid, 10^−8M dexamethasone, 10 mM Na-β-glycerophosphate and Antibiotic-antimycotic solution containing 10,000 units/ml Penicillin G sodium, 10,000 mg/ml Streptomycin sulfate and 25 mg/ml Amphotericin B. Cells were incubated in a humidified atmosphere of 95% air, 5% CO2 at 37° C. At 80% confluency, the cells were detached using 0.25% Trypsin-1 mM EDTA-4Na and seeded either the polystyrene dish with or without NAC addition, bone substitute material (demineralized bone matrix, Orthoblast, IsoTis OrthoBiologics, Inc. Irvine, Calif.), collagen gel (PureCol, Inamed, Fremont, Calif.) or bone cement (Endurance MV, DePuy Orthopaedics, Warsaw, Ind.) with or without NAC incorporation at a density of 4×10^4 cells/cm^2. The culture medium was renewed every three days. The NAC incorporated bone graft substitute and collagen membrane materials were prepared by soaking each of the materials in NAC for 24 hours. The NAC-incorporated collagen gel was prepared by mixing the collagen gel and NAC. The expression of bone-related genes was analyzed using the reverse transcription-polymerase chain reaction (RT-PCR). Total RNA in the cultures was extracted using TRIzol (Invitrogen, Carlsbad, Calif.) and purification column (RNeasy, Qiagen, Valencia, Calif.). Following DNAse I treatment, reverse transcription of 0.5 μg of total RNA was performed using MMLV reverse transcriptase (Clontech, Carlsbad, Calif.) in the presence of oligo(dT) primer (Clontech, Carlsbad, Calif.). The PCR reaction was performed using Taq DNA polymerase (EX Taq, Takara Bio, Madison, Wis.) to detect alpha-I type I collagen (collagen I), osteopontin, and osteocalcin mRNA. The primer sequences and PCR conditions are described previously. Resulting products were visualized on 1.5% agarose gel with ethidium bromide staining. The intensity of bands was quantified under UV light, and the values were normalized with reference to GAPDH mRNA.

CC(=O)N[C@@H](CS)C(=O)O [NAC, N-acetyl cysteine]
alkaline phosphatase activity (ALP positive area) (rat osteoblastic cells [1]): increased | Von Kossa positive area (mineralizing capability) (rat osteoblastic cells [2]): significantly increased | gene expression level of Bmp2 (osteoblastic culture; NAC addition to the culture): significantly elevated | gene expression level of Runx2/cbfa1 (osteoblastic culture; NAC addition to the culture): significantly elevated | osteocalcin expression (osteoblastic culture; culture with NAC, early stage of day 3): upregulated | expression of collagen I (osteoblastic culture; culture with NAC, up to day 14): upregulated | expression of osteopontin (osteoblastic culture; culture with NAC, up to day 14): upregulated
